How the values were obtained:
[1] = test system: p105 to p50 processing; test: Proteasome dependent p105 to p50 processing in transfected COS cells (pulse-chase); assay type: cell-based, African green monkey; conditions: 1 h pretreatment, 2 hour chase
Experimental: COS cells were plated onto 100 mm dishes, then, with DEAE-Destran, either mock transfected, or transfected with 3 μg of pcDNA plasmid containing the human p105 cDNA. Forty-eight hrs after transfection, cells were pretreated for 1 hour with 0.5% DMSO, 50 μM calpain inhibitor II, 50 μM MG132, or 10 μM β-lactone. Cells were then pulse labelled with 250 uCi/plate of ^35S-methionine/cysteine for 15 minutes, and either harvested immediately or followed by a 2 hour chase with excess unlabelled methionine and cysteine. Cells were then lysed with SDS/Tris, and proteins were immunoprecipitated with anti-p50 antibodies (recognize the N-terminal half of the p105 protein). These proteins were then separated on a 10% SDS-polyacrylamide gel, which was then fixed, dried, and exposed to autoradiographic film.

[2] = target: T1, Calpain II (Homo sapiens, UniProt P17655); test: Selectivity of protease inhibition: calpain II; assay type: biochemical; conditions: concentration not given
T1 sequence (P17655 1-700): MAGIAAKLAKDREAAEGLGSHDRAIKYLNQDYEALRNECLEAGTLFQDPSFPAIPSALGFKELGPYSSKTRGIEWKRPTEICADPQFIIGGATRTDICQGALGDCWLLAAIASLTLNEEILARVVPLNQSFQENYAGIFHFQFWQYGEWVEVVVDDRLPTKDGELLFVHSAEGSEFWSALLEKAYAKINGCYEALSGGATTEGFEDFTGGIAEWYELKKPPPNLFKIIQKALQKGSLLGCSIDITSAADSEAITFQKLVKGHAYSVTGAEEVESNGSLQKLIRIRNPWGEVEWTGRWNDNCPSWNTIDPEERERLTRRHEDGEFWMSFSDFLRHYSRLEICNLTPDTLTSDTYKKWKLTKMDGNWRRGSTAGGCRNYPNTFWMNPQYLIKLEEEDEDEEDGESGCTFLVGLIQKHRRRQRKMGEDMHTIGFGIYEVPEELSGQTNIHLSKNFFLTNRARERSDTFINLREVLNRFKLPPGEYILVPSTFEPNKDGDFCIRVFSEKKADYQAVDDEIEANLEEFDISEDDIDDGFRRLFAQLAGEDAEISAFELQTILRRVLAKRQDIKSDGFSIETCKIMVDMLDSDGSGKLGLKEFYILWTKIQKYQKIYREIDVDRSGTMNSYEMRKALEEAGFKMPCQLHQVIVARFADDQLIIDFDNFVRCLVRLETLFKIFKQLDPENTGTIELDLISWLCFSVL
T1 sequence (P04632 1-268 partner): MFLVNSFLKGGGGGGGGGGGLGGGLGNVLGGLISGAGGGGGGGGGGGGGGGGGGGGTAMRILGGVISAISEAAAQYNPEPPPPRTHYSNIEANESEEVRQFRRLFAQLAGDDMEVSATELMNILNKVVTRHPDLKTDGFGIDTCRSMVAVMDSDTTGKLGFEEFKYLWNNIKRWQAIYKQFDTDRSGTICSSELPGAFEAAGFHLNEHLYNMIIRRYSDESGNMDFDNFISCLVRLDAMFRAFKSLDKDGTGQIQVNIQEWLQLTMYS

[3] = target: Cathepsin B (Homo sapiens, UniProt P07858); test: Selectivity of protease inhibition: cathepsin B; assay type: biochemical; conditions: concentration not given
[4] = target: T2, Calpain I (Homo sapiens, UniProt P07384); test: Selectivity of protease inhibition: calpain I; assay type: biochemical; conditions: concentration not given
T2 sequence (P07384 1-714): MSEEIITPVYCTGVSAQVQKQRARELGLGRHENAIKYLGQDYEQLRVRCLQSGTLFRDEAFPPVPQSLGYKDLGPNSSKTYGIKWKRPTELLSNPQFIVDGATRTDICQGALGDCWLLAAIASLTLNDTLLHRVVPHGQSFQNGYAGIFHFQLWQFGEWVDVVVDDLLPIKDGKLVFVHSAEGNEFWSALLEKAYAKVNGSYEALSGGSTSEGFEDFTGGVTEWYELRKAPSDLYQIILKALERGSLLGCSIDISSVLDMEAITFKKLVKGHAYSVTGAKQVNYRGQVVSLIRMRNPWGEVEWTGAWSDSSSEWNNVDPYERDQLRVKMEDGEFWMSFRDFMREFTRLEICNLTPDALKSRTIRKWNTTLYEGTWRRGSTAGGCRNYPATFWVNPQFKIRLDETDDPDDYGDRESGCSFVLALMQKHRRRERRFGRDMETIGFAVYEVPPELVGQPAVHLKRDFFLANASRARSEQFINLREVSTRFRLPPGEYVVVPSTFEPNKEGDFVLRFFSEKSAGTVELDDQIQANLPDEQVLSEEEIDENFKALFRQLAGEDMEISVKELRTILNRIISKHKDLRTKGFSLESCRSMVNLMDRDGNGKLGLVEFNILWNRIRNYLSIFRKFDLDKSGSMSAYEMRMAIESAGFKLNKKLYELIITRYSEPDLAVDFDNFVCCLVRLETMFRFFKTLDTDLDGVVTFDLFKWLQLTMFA
T2 sequence (P04632 1-268 partner): T1 sequence (P04632 1-268 partner)

[5] = test system: IκB-α; test: TNF-α dependent degradation of IκB-α in Hela cells (immunoblot); assay type: cell-based, human; conditions: 5 μM, 1 h pretreatment, 1,000 U/ml TNF-α
Experimental: Hela cells were plated onto 6-well plates in DME plus 10% fetal calf serum (3 mls/well). Cells were then pretreated with 0.125% DMSO 40 μM […] (carbobenzoxyl-leucinyl-leucinyl-leucinal-H)(40 μM, lanes 103), or 5 μM β-lactone for one hour, followed by treatment with 1,000 U/ml TNF-α or phosphate buffered saline (PBS). Cells were harvested after 0 min, 20 min, or 40 min of further incubation at 37° C. Cells were then lysed in buffer containing NP-40 and protease inhibitors, and the proteins separated on a 10% SDS-polyacrylamide gel. The proteins were then transferred to nitrocellulose and probed with antibodies against the C-terminal 20 amino acids of human IκB-α.

## CC(C)[C@H](O)[C@@]12NC(=O)[C@H](C)[C@@H]1OC2=O [β-Lactone, clasto-lactacystin β-lactone]
[1]; 10 μM
  processing of p105 to p50 (level of p50): only a slight effect
[1]; 50 μM
  processing of p105 to p50 (appearance of p50): complete inhibition
[2]
  inhibition of calpain II activity: do not inhibit
[3]
  inhibition of cathepsin activity: do not inhibit
[4]
  inhibition of calpain I activity: do not inhibit
[5]
  degradation of IκB after TNF induction: blocks degradation
  phosphorylated form of IκB: stabilizes the phosphorylated form

Source: US6838477B2, “Lactacystin analogs” (President and Fellows of Harvard College, priority 1995, dated 2005)
